Measurements as given in patent publication US9108921B2, “Therapeutic compounds and compositions” (AGIOS PHARMACEUTICALS, INC, priority 2014, dated 2015).

Columns and labels:
[1] = biological target: PKR R510Q (Homo sapiens, UniProt P30613, R510Q); experiment: PKR Mutant Assay, AC50 against PKR R510Q; type: biochemical; details: mutant PKR R510Q enzyme
Outline: (§1)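 Human PKR (WT or mutant, 80-400 ng/well) in 50 mM Tris pH 7.5, 100 mM KCl, 5 mM MgCl2, 1 mM DTT, 0.03% BSA with PEP 0.1-0.5 mM, NADH 180 uM and LDH, preincubated 60 min at room temperature with compound (11-point 3-fold series from 100 μM final, 1% DMSO). ADP 0.22-1.65 mM started reaction; A340 followed.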

[2] = biological target: T1, PKR WT (Homo sapiens, UniProt P30613); experiment: PKR WT enzymatic AC50 assay; type: biochemical; details: wild type PKR
Outline: as §1

[3] = biological target: T1, PKR WT; experiment: PKR WT cell based AC50 assay; details: wild type PKR
[4] = biological target: PKR R532W (Homo sapiens, UniProt P30613, R532W); experiment: PKR Mutant Assay, AC50 against PKR R532W; type: biochemical; details: mutant PKR R532W enzyme
Outline: as §1

T1 sequence (P30613 whole entry): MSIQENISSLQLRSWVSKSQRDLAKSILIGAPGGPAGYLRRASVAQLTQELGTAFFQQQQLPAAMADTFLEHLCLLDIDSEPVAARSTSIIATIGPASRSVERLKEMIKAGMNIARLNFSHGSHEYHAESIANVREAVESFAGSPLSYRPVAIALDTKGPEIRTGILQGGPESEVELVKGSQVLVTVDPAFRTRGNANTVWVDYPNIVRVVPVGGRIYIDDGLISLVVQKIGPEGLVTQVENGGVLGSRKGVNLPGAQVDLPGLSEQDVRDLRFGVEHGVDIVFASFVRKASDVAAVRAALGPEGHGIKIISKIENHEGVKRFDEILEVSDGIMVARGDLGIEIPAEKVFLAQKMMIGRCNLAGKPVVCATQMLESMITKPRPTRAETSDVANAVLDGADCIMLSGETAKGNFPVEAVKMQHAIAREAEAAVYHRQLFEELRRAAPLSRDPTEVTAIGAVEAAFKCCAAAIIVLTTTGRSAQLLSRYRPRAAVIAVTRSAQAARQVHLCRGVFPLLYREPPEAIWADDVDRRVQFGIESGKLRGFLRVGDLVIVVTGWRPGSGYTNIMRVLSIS
Chain of PKR R532W (P30613 whole entry R532W): as the sequence (P30613 whole entry) above, with R532W counted along it
Chain of PKR R510Q (P30613 whole entry R510Q): as the sequence (P30613 whole entry) above, with R510Q counted along it

Structure (SMILES)	AC50 [1] [nM]	AC50 [2] [nM]	AC50 [3] [nM]	AC50 [4] [nM]
O=C(c1ccc(NS(=O)(=O)c2cccc3nccnc23)cc1)N1CCC(O)(Cc2ccccc2C(F)(F)F)CC1 [Compound 114, N-(4-(4-hydroxy-4-(2-(trifluoromethyl)benzyl)piperidine-1-carbonyl)phenyl)quinoxaline-5-sulfonamide]	< 100	< 100	< 100	< 100
COc1ccccc1C1(O)CCN(C(=O)c2ccc(NS(=O)(=O)c3cccc4cccnc34)cc2)CC1 [Compound 184, N-(4-(4-hydroxy-4-(2-methoxyphenyl)piperidine-1-carbonyl)phenyl)quinoline-8-sulfonamide]	101 to 1000	< 100	101 to 1000	< 100
O=C(c1ccc(NS(=O)(=O)c2cccc3cccnc23)cc1)N1CCC(O)(Cc2cccc(F)c2)CC1 [Compound 105, N-(4-(4-(3-fluorobenzyl)-4-hydroxypiperidine-1-carbonyl)phenyl)quinoline-8-sulfonamide]	< 100	< 100	< 100	< 100
CC(C)CC1(O)CCN(C(=O)c2ccc(NS(=O)(=O)c3cccc4c3OCO4)cc2)CC1 [Compound 423]	101 to 1000	< 100	< 100	< 100
CC(C)(C)CC1(O)CCN(C(=O)c2ccc(NS(=O)(=O)c3ccc(F)c4cccnc34)cc2)CC1 [Compound 187, 5-fluoro-N-(4-(4-hydroxy-4-neopentylpiperidine-1-carbonyl)phenyl)quinoline-8-sulfonamide]	< 100	< 100	< 100	< 100
O=C(c1ccc(NS(=O)(=O)c2cccc3cccnc23)cc1)N1CCC(O)(c2cnsc2)CC1 [Compound 353]	101 to 1000	< 100	< 100	< 100
CC(C)CC1(O)CCN(C(=O)c2ccc(NS(=O)(=O)c3cccc4c(O)ncnc34)cc2)CC1 [Compound 388, 4-hydroxy-N-(4-(4-hydroxy-4-isobutylpiperidine-1-carbonyl)phenyl)quinazoline-8-sulfonamide]	< 100	< 100	< 100	< 100
COc1ccccc1CC1(O)CCN(C(=O)c2ccc(NS(=O)(=O)c3cccc4cccnc34)cc2)CC1 [Compound 116, N-(4-(4-hydroxy-4-(2-methoxybenzyl)piperidine-1-carbonyl)phenyl)quinoline-8-sulfonamide]	< 100	< 100	< 100	< 100
O=C(c1ccc(NS(=O)(=O)c2cccc3nccnc23)cc1)N1CCC(O)(CCCC(F)F)CC1 [Compound 400, N-(4-(4-(4,4-difluorobutyl)-4-hydroxypiperidine-1-carbonyl)phenyl)quinoxaline-5-sulfonamide]	101 to 1000	< 100	< 100	< 100
CC(C)CC1(O)CCN(C(=O)c2ccc(NS(=O)(=O)c3cccc4nc(N)cnc34)cc2)CC1 [Compound 439]	< 100	< 100	< 100	< 100
O=C(c1ccc(NS(=O)(=O)c2cccc3cccnc23)cc1OC(F)F)N1CCC(O)(c2ccccc2Cl)CC1 [Compound 151, N-(4-(4-(2-chlorophenyl)-4-hydroxypiperidine-1-carbonyl)-3-(difluoromethoxy)phenyl)quinoline-8-sulfonamide]	< 100	< 100	< 100	< 100
O=C(c1ccc(NS(=O)(=O)c2cccc3cccnc23)cc1)N1CCC(O)(Cc2cccnc2)CC1 [Compound 185, N-(4-(4-hydroxy-4-(pyridin-3-ylmethyl)piperidine-1-carbonyl)phenyl)quinoline-8-sulfonamide]	101 to 1000	< 100	101 to 1000	< 100
O=C(c1ccc(NS(=O)(=O)c2cc(F)cc3scnc23)cc1)N1CCC(O)(c2ccccc2Cl)CC1 [Compound 401, N-(4-(4-(2-chlorophenyl)-4-hydroxypiperidine-1-carbonyl)phenyl)-6-fluorobenzo[d]thiazole-4-sulfonamide]	101 to 1000	< 100	101 to 1000	< 100
COc1cc(NS(=O)(=O)c2cccc3cccnc23)ccc1C(=O)N1CCC(O)(c2ccccc2Cl)CC1 [Compound 170, N-(4-(4-(2-chlorophenyl)-4-hydroxypiperidine-1-carbonyl)-3-methoxyphenyl)quinoline-8-sulfonamide]	101 to 1000	< 100	101 to 1000	< 100
O=C(c1ccc(NS(=O)(=O)c2cccc3cccnc23)cc1)N1CCC(O)(Cc2ccccc2C(F)(F)F)CC1 [Compound 109, N-(4-(4-hydroxy-4-(2-(trifluoromethyl)benzyl)piperidine-1-carbonyl)phenyl)quinoline-8-sulfonamide]	< 100	< 100	< 100	< 100
O=C(c1ccc(NS(=O)(=O)c2cccc3cccnc23)cc1)N1CCC(O)(Cc2ccccc2F)CC1 [Compound 110, N-(4-(4-(2-fluorobenzyl)-4-hydroxypiperidine-1-carbonyl)phenyl)quinoline-8-sulfonamide]	< 100	< 100	< 100	< 100
O=C(c1ccc(NS(=O)(=O)c2cccc3cccnc23)cc1)N1CCC(O)(CC2CCC2)CC1 [Compound 124, N-(4-(4-(cyclobutylmethyl)-4-hydroxypiperidine-1-carbonyl)phenyl)quinoline-8-sulfonamide]	< 100	< 100	< 100	< 100
O=C(c1ccc(NS(=O)(=O)c2cccc3cccnc23)cc1)N1CCC(O)(c2cccc(F)c2F)CC1 [Compound 100, N-[4-[4-(2,3-difluorophenyl)-4-hydroxy-piperidine-1-carbonyl]phenyl]quinoline-8-sulfonamide]	< 100	< 100	< 100	< 100
Cc1cc(C(=O)N2CCC(O)(c3cccc(F)c3F)CC2)ccc1NS(=O)(=O)c1cccc2nccnc12 [Compound 175, N-(4-(4-(2,3-difluorophenyl)-4-hydroxypiperidine-1-carbonyl)-2-methylphenyl)quinoxaline-5-sulfonamide]	101 to 1000	< 100	< 100	< 100
O=C(c1ccc(NS(=O)(=O)c2cccc3cccnc23)cc1)N1CCC(O)(c2ccncc2)CC1 [Compound 206, N-(4-(4-hydroxy-4-(pyridin-4-yl)piperidine-1-carbonyl)phenyl)quinoline-8-sulfonamide]	1010 to 10000	< 100	< 100	< 100
O=C(c1ccc(NS(=O)(=O)c2cccc3ccccc23)cc1)N1CCC(O)(c2ccccc2Cl)CC1 [Compound 197, N-(4-(4-(2-chlorophenyl)-4-hydroxypiperidine-1-carbonyl)phenyl)naphthalene-1-sulfonamide]	101 to 1000	< 100	101 to 1000	< 100
O=C(c1ccc(NS(=O)(=O)c2cccc3cccnc23)cc1)N1CCC(O)(c2cnsc2)CC1 [Compound 377]	101 to 1000	< 100	< 100	< 100
O=C(c1ccc(NS(=O)(=O)c2cccc3cccnc23)cc1)N1CCC(O)(Cc2ccccn2)CC1 [Compound 189, N-(4-(4-hydroxy-4-(pyridin-2-ylmethyl)piperidine-1-carbonyl)phenyl)quinoline-8-sulfonamide]	101 to 1000	< 100	101 to 1000	< 100
O=C(c1ccc(NS(=O)(=O)c2cccc3scnc23)cc1)N1CCC(O)(Cc2ccccc2C(F)(F)F)CC1 [Compound 125]	< 100	< 100	< 100	< 100
O=C(c1ccc(NS(=O)(=O)c2cccc3cccnc23)cc1)N1CCC(O)(c2ccccc2O)CC1 [Compound 228, N-[4-[4-hydroxy-4-(2-hydroxyphenyl)piperidine-1-carbonyl]phenyl]quinoline-8-sulfonamide]	1010 to 10000	101 to 1000	< 100	< 100
CC(CC1(O)CCN(C(=O)c2ccc(NS(=O)(=O)c3cccc4c(O)ncnc34)cc2)CC1)C(F)(F)F (stereo not drawn) [Compound 431]	< 100	< 100	101 to 1000	< 100
Nc1nc2c(S(=O)(=O)Nc3ccc(C(=O)N4CCC(O)(CCCC(F)(F)F)CC4)cc3)cccc2s1 [Compound 420]	< 100	< 100	< 100	< 100
Nc1nc2c(S(=O)(=O)Nc3ccc(C(=O)N4CCC(O)(c5cccc(F)c5F)CC4)cc3)cccc2s1 [Compound 422]	< 100	< 100	< 100	< 100
CC(C)CC1(O)CCN(C(=O)c2ccc(NS(=O)(=O)c3cccc4cccnc34)cc2)CC1 [Compound 140, N-(4-(4-hydroxy-4-isobutylpiperidine-1-carbonyl)phenyl)quinoline-8-sulfonamide]	< 100	< 100	< 100	< 100
CC(F)(F)CCC1(O)CCN(C(=O)c2ccc(NS(=O)(=O)c3cccc4nccnc34)cc2)CC1 [Compound 396, N-(4-(4-(3,3-difluorobutyl)-4-hydroxypiperidine-1-carbonyl)phenyl)quinoxaline-5-sulfonamide]	101 to 1000	< 100	< 100	101 to 1000
